Data on 31 molecules can be found in US12649723B2, “Carbonohydrazonoyl dicyanide compounds comprising 2 or more aryl or heteroaryl connected via linker and use thereof” (KOREA INSTITUTE OF SCIENCE AND TECHNOLOGY, priority 2020, dated 2026).

A value given as a limit tells only on which side of the number the result lay.

The term IC50 denotes the concentration that inhibits the measured activity by half. Higher therefore signals lower potency.

The target in series [1] is T1, tau protein (Homo sapiens, UniProt P10636).
T1 construct: fused on or other part: Split fluorescent-protein halves for BiFC are fused to tau; In the published tau-BiFC line these are Venus VN173 and VC155
Kind of series: Tau-BiFC cell model: inhibition of tau protein aggregation. It is filed as cell-based. The note with it: for remaining activity at 10 µM / remaining activity at 3 µM: 48 h, Forskolin-only group = 100% tau protein-aggregated state; for remaining activity at 10 µM: compound 10 μM, BiFC fluorescence, read-out: Response (% @10 μM); for IC50: Tau BiFC in cells, with Forskolin 30 μM, 48 hours; for remaining activity at 3 µM: compounds marked *: measured at 3 μM, read-out: Response. An outline of the steps: (§1)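 Aggregation was induced by 30 μM Forskolin co-applied with test compound for 48 h, with screening at 1, 3, 10 μM and dose-response at 0.03–30 μM. Nuclei were stained with Hoechst (2 μg/mL) and counted against Forskolin-only wells for cytotoxicity. Inhibition came from BiFC fluorescence relative to Forskolin-only versus untreated cells, with IC50 by nonlinear regression.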

The subject of series [2] is Tau-BiFC cells. Kind of series: Cell viability (cytotoxicity) in tau-BiFC cells, count of stained nuclei. Format: cell-based. To be noted: Forskolin-only group = 100% cell viability; for Cell viability (% @10 μM): compound 10 μM; for Cell viability: compounds marked *: measured at 3 μM. The essentials: as §1

T1 sequence (P10636 2-441 isoform P10636-8 limits assumed): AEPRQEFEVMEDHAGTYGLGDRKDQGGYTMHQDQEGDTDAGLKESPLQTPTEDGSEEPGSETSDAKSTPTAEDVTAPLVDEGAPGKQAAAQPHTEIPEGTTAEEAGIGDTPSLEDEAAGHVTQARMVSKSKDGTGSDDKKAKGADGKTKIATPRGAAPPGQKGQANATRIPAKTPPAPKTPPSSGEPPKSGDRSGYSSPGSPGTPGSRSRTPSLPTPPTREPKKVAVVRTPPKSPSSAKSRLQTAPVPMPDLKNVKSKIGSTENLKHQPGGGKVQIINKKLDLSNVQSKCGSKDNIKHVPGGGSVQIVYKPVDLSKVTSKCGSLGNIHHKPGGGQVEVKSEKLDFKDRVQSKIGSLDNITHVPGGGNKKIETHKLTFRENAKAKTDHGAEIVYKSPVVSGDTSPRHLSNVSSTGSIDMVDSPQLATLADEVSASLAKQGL

As to `N#CC(C#N)=NNc1ccc(NC(=O)c2ncccn2)nc1` [Compound 29, (6-(pyrimidine-2-carboxamido)pyridin-3-yl)carbonohydrazonoyl dicyanide], in series [1], the remaining activity at 10 µM stood at 0% and the IC50 stood at 1.04 µM. Besides, in series [2], the “Cell viability (% @10 μM)” value amounted to 139.9%.
On the same counts, the results for `N#CC(C#N)=NNc1ccc(NC(=O)c2cnc3ccccc3n2)nc1` [Compound 32, (6-(quinoxaline-2-carboxamido)pyridin-3-yl)carbonohydrazonoyl dicyanide] are 0%, 0.31 µM and 145.3%.
As for `N#CC(C#N)=NNc1ccc(NS(=O)(=O)c2ccccc2)nc1` [Compound 58, (6-(phenylsulfonamido)pyridin-3-yl)carbonohydrazonoyl dicyanide], in series [1], the remaining activity at 10 µM was determined as 51.4%. Also, the “Cell viability (% @10 μM)” value in series [2] is given as 113.5%.
Regarding `Cc1ccc(C(=O)Nc2ccc(NN=C(C#N)C#N)cn2)cc1F` [Compound 22, (6-(3-fluoro-4-methylbenzamido)pyridin-3-yl)carbonohydrazonoyl dicyanide], in series [1], the remaining activity at 10 µM was determined as 0% and inhibition was half-maximal at 0.32 µM (IC50). Moreover, in series [2], the “Cell viability (% @10 μM)” value is given as 105.8%.
For `N#CC(C#N)=NNc1ccc(Oc2ccncc2)c(F)c1` [Compound 80, (3-fluoro-4-(pyridin-4-yloxy)phenyl)carbonohydrazonoyl dicyanide], the remaining activity at 10 µM in series [1] was found to be 68%. The “Cell viability (% @10 μM)” value in series [2] came out at 112.3%.
In the case of `Cc1cncc(NC(=O)c2ccc(NN=C(C#N)C#N)cc2C)n1` [Compound 54, (3-methyl-4-(6-methylpyrazin-2-ylcarbamoyl)phenyl)carbonohydrazonoyl dicyanide], the remaining activity at 10 µM in series [1] was 8.3%. For the same molecule, the “Cell viability (% @10 μM)” value in series [2] is 116%.
In the case of `N#CC(C#N)=NNc1ccc(OCCc2ccc(Cl)cc2)nc1` [Compound 131, (6-(4-chlorophenethoxy)pyridin-3-yl)carbonohydrazonoyl dicyanide], in series [1], the remaining activity at 10 µM turned out to be 10.6%. Further, the “Cell viability (% @10 μM)” value in series [2] came out at 33.4%.
Consider `N#CC(C#N)=NNc1ccc(OCCc2ccccc2)cc1` [Compound 122, (4-phenethoxyphenyl)carbonohydrazonoyl Dicyanide], for which, in series [1], the remaining activity at 10 µM was 11.7% and 1.86 µM corresponded to half-maximal inhibition (IC50). Also, the “Cell viability (% @10 μM)” value in series [2] came to 92.9%.
Turning to `Cc1cnc(C(=O)Nc2ccc(NN=C(C#N)C#N)cc2)cn1` [Compound 2, (4-(5-methylpyrazine-2-carboxamido)phenyl)carbonohydrazonoyl dicyanide], in series [1], the remaining activity at 10 µM is 0% and the half-maximal inhibitory concentration (IC50) was found to be 1.4 µM. For the same molecule, the “Cell viability (% @10 μM)” value in series [2] worked out at 71.5%.
For the molecule `N#CC(C#N)=NNc1ccc(Oc2cncnc2)c(F)c1` [Compound 82, (3-fluoro-4-(pyrimidin-5-yloxy)phenyl)carbonohydrazonoyl dicyanide], in series [1], the remaining activity at 10 µM was 0% and half-maximal inhibition (IC50) required 2.96 µM. Moreover, the “Cell viability (% @10 μM)” value in series [2] is given as 126.4%.
Regarding `COc1cc(NN=C(C#N)C#N)ccc1OCc1cscn1` [Compound 167, (3-methoxy-4-(thiazol-4-ylmethoxy)phenyl)carbonohydrazonoyl dicyanide], in series [1], the remaining activity at 3 µM was -38% and the half-inhibitory concentration (IC50) amounted to 0.01 µM. Moreover, in series [2], the Cell viability was determined as 118%.
Consider `Cc1cccc(C(=O)Nc2ccc(NN=C(C#N)C#N)cn2)c1` [Compound 24, (6-(3-methylbenzamido)pyridin-3-yl)carbonohydrazonoyl dicyanide], for which, in series [1], the remaining activity at 10 µM was 0% and the IC50 is < 0.3 µM. Besides, the “Cell viability (% @10 μM)” value in series [2] is recorded as 103.9%.
As for `N#CC(C#N)=NNc1ccc(Oc2nccs2)cc1` [Compound 116, (4-(thiazol-2-yloxy)phenyl)carbonohydrazonoyl dicyanide], in series [1], the remaining activity at 10 µM was 0% and 1.4 µM corresponded to half-maximal inhibition (IC50). In addition, the “Cell viability (% @10 μM)” value in series [2] is given as 124%.
On to `N#CC(C#N)=NNc1ccc(NS(=O)(=O)c2cccnc2)nc1` [Compound 60, (6-(pyridin-3-sulfonamido)pyridin-3-yl)carbonohydrazonoyl dicyanide], for which, in series [1], the remaining activity at 10 µM stood at 90.2%. The “Cell viability (% @10 μM)” value in series [2] is 116.9%.
In the case of `N#CC(C#N)=NNc1ccc(OCc2nc3ccccc3s2)cc1` [Compound 129, (4-(benzo[d]thiazol-2-ylmethoxy)phenyl)carbonohydrazonoyl dicyanide], in series [1], the remaining activity at 10 µM was found to be 0% and the IC50 came out at 0.2 µM. The “Cell viability (% @10 μM)” value in series [2] came to 106.9%.
Consider `N#CC(C#N)=NNc1ccc(OCc2ccccc2)c(C(F)(F)F)c1` [Compound 97, (4-(benzyloxy)-3-(trifluoromethyl)phenyl)carbonohydrazonoyl dicyanide], for which, in series [1], the remaining activity at 10 µM was determined as 0% and 0.1 µM corresponded to half-maximal inhibition (IC50). Moreover, the “Cell viability (% @10 μM)” value in series [2] worked out at 27.1%.
Regarding `N#CC(C#N)=NNc1ccc(C(=O)Nc2cccnc2)cc1` [Compound 49, (4-(pyridin-3-ylcarbamoyl)phenyl)carbonohydrazonoyl dicyanide], the remaining activity at 10 µM in series [1] is 75.9%. In addition, the “Cell viability (% @10 μM)” value in series [2] stood at 117.2%.
Regarding `CN(N=C(C#N)C#N)c1ccc(Oc2ccccc2)c(F)c1` [Compound 77, (3-fluoro-4-phenoxyphenyl)(methyl)carbonohydrazonoyl dicyanide], the remaining activity at 10 µM in series [1] came out at 84.8%. For the same molecule, the “Cell viability (% @10 μM)” value in series [2] turned out to be 91.6%.
`Cc1cnc(NS(=O)(=O)c2ccc(NN=C(C#N)C#N)cc2)cn1` [Compound 67, (4-(N-(5-methylpyrazin-2-yl)sulfamoyl)phenyl)carbonohydrazonoyl dicyanide]: the remaining activity at 10 µM in series [1] was determined as 68.2%. Moreover, in series [2], the “Cell viability (% @10 μM)” value is listed as 108.4%.
As for `N#CC(C#N)=NNc1ccc(C(=O)Nc2ccc(Cl)cc2)nc1` [Compound 37, (6-(4-chlorophenylcarbamoyl)pyridin-3-yl)carbonohydrazonoyl dicyanide], the remaining activity at 10 µM in series [1] is 62.7%. Besides, in series [2], the “Cell viability (% @10 μM)” value was determined as 117.8%.
As for `N#CC(C#N)=NNc1ccc(OCc2nc3ccccc3[nH]2)cc1` [Compound 126, (4-((1H-benzo[d]imidazol-2-yl)methoxy)phenyl)carbonohydrazonoyl dicyanide], in series [1], the remaining activity at 10 µM stood at 0% and the IC50 came out at 0.1 µM. Moreover, the “Cell viability (% @10 μM)” value in series [2] stood at 133.2%.
For the molecule `N#CC(C#N)=NNc1ccc(Oc2ccc(C(F)(F)F)cn2)cc1` [Compound 90, (4-(5-(trifluoromethyl)pyridin-2-yloxy)phenyl)carbonohydrazonoyl dicyanide], in series [1], the remaining activity at 10 µM worked out at 0% and the IC50 came to 1.29 µM. Also, the “Cell viability (% @10 μM)” value in series [2] is listed as 43.7%.
In the same order, the values of `N#CC(C#N)=NNc1ccc(NC(=O)c2cnco2)nc1` [Compound 114, (6-(oxazole-5-carboxamido)pyridin-3-yl)carbonohydrazonoyl dicyanide] are 0%, 1.5 µM and 149.5%.
In the same order, the values of `N#CC(C#N)=NNc1ccc(Oc2cccnc2)cc1` [Compound 85, (4-(pyridin-3-yloxy)phenyl)carbonohydrazonoyl dicyanide] are 0%, 1.58 µM and 99.1%.
As to `COc1ccc(NC(=O)c2ccc(NN=C(C#N)C#N)cc2)cc1` [Compound 44, (4-(4-methoxyphenylcarbamoyl)phenyl)carbonohydrazonoyl dicyanide], the remaining activity at 10 µM in series [1] amounted to 0%. Further, in series [2], the “Cell viability (% @10 μM)” value worked out at 70.4%.
For the molecule `N#CC(C#N)=NNc1ccc(Oc2ccccc2C#N)cc1` [Compound 86, (4-(2-cyanophenoxy)phenyl)carbonohydrazonoyl dicyanide], in series [1], the remaining activity at 10 µM came to 0% and the 50% inhibitory concentration (IC50) came to 2.12 µM. In addition, the “Cell viability (% @10 μM)” value in series [2] was found to be 72.6%.
As for `Cc1cc(NN=C(C#N)C#N)ccc1Oc1cncnc1` [Compound 81, (3-methyl-4-(pyrimidin-5-yloxy)phenyl)carbonohydrazonoyl dicyanide], in series [1], the remaining activity at 10 µM was determined as 0% and the 50% inhibitory concentration (IC50) was 0.55 µM. Further, the “Cell viability (% @10 μM)” value in series [2] is recorded as 116.2%.
Regarding `CC(Oc1ccc(NN=C(C#N)C#N)cc1)c1ccc(C(F)(F)F)cc1` (stereo not drawn) [Compound 139, (4-(1-(4-(trifluoromethyl)phenyl)ethoxy)phenyl)carbonohydrazonoyl dicyanide], the remaining activity at 3 µM in series [1] is 39%. In addition, in series [2], the Cell viability is given as 123%.
For the molecule `Cc1cnc(C(=O)Nc2ccc(NN=C(C#N)C#N)cc2C)cn1` [Compound 8, (3-methyl-4-(5-methylpyrazine-2-carboxamido)phenyl)carbonohydrazonoyl dicyanide], in series [1], the remaining activity at 10 µM was 0% and the concentration for half-maximal inhibition (IC50) came out at 0.04 µM. Moreover, the “Cell viability (% @10 μM)” value in series [2] stood at 88%.
Consider `N#CC(C#N)=NNc1ccc(C(=O)Nc2cncnc2)cc1` [Compound 50, (4-(pyrimidin-5-ylcarbamoyl)phenyl)carbonohydrazonoyl dicyanide], for which, in series [1], the remaining activity at 10 µM stood at 86.6%. Further, the “Cell viability (% @10 μM)” value in series [2] amounted to 116.4%.
Consider `Cc1ccccc1C(=O)Nc1ccc(NN=C(C#N)C#N)cn1` [Compound 25, (6-(2-methylbenzamido)pyridin-3-yl)carbonohydrazonoyl dicyanide], for which, in series [1], the remaining activity at 10 µM worked out at 0% and the half-maximal inhibitory concentration (IC50) is 0.39 µM. Besides, the “Cell viability (% @10 μM)” value in series [2] is recorded as 122.4%.
